In general, IC50 refers to the concentration at which inhibition is half-maximal.

Where only a bound is given, the exact number is not on record here.

A short description of test [1]: Inhibition of Metallo-beta-lactamase IMP-1 (unknown origin) using FC5 as fluorescence substrate preincubated for 10 mins followed by substrate addition by microplate reader analysis.
The target in test [2] is Metallo-beta-lactamase type 2 (Bacteria, UniProt C7C422). In words: Inhibition of NDM-1 (1 to 270 residues) (unknown origin) expressed in Escherichia coli Transetta (DE3) using FC5 as fluorescence substrate preincubated for 10 mins followed by substrate addition by microplate reader analysis.
Chain of Metallo-beta-lactamase type 2 (C7C422 whole entry, the tested form may be a part): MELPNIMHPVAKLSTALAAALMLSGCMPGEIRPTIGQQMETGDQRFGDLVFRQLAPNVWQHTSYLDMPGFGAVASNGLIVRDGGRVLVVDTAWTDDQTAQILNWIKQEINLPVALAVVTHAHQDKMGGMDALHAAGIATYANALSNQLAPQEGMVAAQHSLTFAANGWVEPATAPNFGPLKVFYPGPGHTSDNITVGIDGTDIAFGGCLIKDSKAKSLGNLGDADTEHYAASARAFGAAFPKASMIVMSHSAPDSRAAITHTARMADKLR
The nature of test [3]: Inhibition of Metallo-beta-lactamase VIM-5 (unknown origin) using FC5 as fluorescence substrate preincubated for 10 mins followed by substrate addition by microplate reader analysis.
Test [4] is described as follows: Inhibition of Metallo-beta-lactamase VIM-1 (unknown origin) using FC5 as fluorescence substrate preincubated for 10 mins followed by substrate addition by microplate reader analysis.
Test [5] in a line: Inhibition of N-terminal His-6 tagged VIM-2 (27 to 266 residues) (unknown origin) expressed in Escherichia coli Transetta (DE3) using FC5 as fluorescence substrate preincubated for 10 mins followed by substrate addition by microplate reader analysis. Details: species or system Bacteria.

With `O=C(O)c1nccn1CCc1ccc(-c2ccc3ccccc3c2)cc1`, the IC50 in test [1] is 202 µM; in test [2], > 100 µM; in test [3] it was 0.22 µM; in test [4], 96.7 µM; in test [5], 4.97 µM.

For `Cc1c(C(=O)O)ncn1Cc1ccccc1`, the IC50 in test [1], in test [2], in test [3], in test [4] and in test [5] was > 100 µM in each case.

As to `O=C(O)c1nncn1Cc1ccccc1`, the IC50 in test [2] and in test [5] was > 100 µM throughout.

`O=C(O)c1nc2ccccc2n1Cc1ccccc1`: the IC50 in test [1] is > 100 µM; in test [2] it was > 100 µM; in test [4], > 100 µM; in test [5] it was > 300 µM.

With `CC(Cn1ccnc1C(=O)O)c1ccccc1` (stereo not given), the IC50 was 261 µM in test [1]; 203 µM in test [2]; 1.08 µM in test [3]; 3.29 µM in test [4]; 0.19 µM in test [5].

`O=C(O)c1nccn1CCc1ccc(Br)cc1`: the 50% inhibitory concentration (IC50) is > 100 µM in test [1]; > 100 µM in test [2]; 0.1 µM in test [3]; 3.5 µM in test [4]; 0.06 µM in test [5].

As for `O=C(O)c1nccn1CCc1ccc(-c2cccc3ccccc23)cc1`, the IC50 in test [1] was ~67 µM; in test [2], ~200 µM; in test [3] it was 0.089 µM; in test [4] it was > 100 µM; in test [5], 1.46 µM.

Consider `COc1ccc(CCn2ccnc2C(=O)O)cc1OC`, for which the IC50 was 326 µM in test [1]; > 100 µM in test [2]; 15.1 µM in test [3]; 76.3 µM in test [4]; 0.31 µM in test [5].

Take `O=C(O)c1nccn1CCc1ccc(F)cc1`: the IC50 in test [1] was > 100 µM; in test [2], > 100 µM; in test [3], 1.93 µM; in test [4], 3.11 µM; in test [5] it was 0.14 µM.

`O=C(O)c1ncsc1CCc1cccc(C(F)(F)F)c1`: the IC50 in test [1] is 112 µM; in test [2] it was > 100 µM; in test [3], 2.69 µM; in test [4] it was 2.08 µM; in test [5], 0.56 µM.

`Cc1ncsc1CCn1ccnc1C(=O)O`: the half-maximal inhibitory concentration (IC50) in test [1] is > 100 µM; in test [2] it was > 100 µM; in test [3], 1.99 µM; in test [4], 31.6 µM; in test [5] it was 0.2 µM.

In the case of `O=C(O)c1ncsc1CCc1ccc(Br)cc1`, the concentration for half-maximal inhibition (IC50) in test [1] was > 100 µM; in test [2] it was > 100 µM; in test [3], 0.44 µM; in test [4], 8.37 µM; in test [5], 0.1 µM.

Turning to `O=C(Cn1ccnc1C(=O)O)c1ccccc1`, the IC50 in test [1] was > 100 µM; in test [2], > 300 µM; in test [3] it was 1.85 µM; in test [4], 5.02 µM; in test [5], 0.63 µM.

Take `O=C(O)c1nccn1CCc1cccc(F)c1`: the IC50 in test [1] is 441 µM; in test [2], > 100 µM; in test [3] it was 0.66 µM; in test [4], 3.67 µM; in test [5] it was 0.11 µM.

Consider `O=C(O)c1nccn1CCc1cccc(Cl)c1`, for which the 50% inhibitory concentration (IC50) in test [1] was > 100 µM; in test [2] it was > 100 µM; in test [3], 108 µM; in test [4], 0.96 µM; in test [5], 0.09 µM.

With `COc1cccc(CCc2scnc2C(=O)O)c1`, the half-maximal inhibitory concentration (IC50) in test [1] came to 61.6 µM; in test [2] it was 29.9 µM; in test [3] it was 3.23 µM; in test [4] it was 4.77 µM; in test [5], 0.028 µM.

`O=C(O)c1nccn1CCS(=O)(=O)c1ccccc1`: the IC50 was > 100 µM in test [1]; > 100 µM in test [2]; 4.42 µM in test [3]; 112 µM in test [4]; 2.87 µM in test [5].

As for `O=C(O)c1ncn(Cc2ccccc2)n1`, the IC50 in test [2] and in test [5] was > 100 µM in each case.

Turning to `O=C(O)c1ncnn1Cc1ccccc1`, the IC50 in test [2] and in test [5] was > 100 µM throughout.

Values taken from ChEMBL document CHEMBL5360522, “Design, Synthesis, and Biological Evaluation of New 1H-Imidazole-2-Carboxylic Acid Derivatives as Metallo-β-Lactamase Inhibitors” (Bioorg Med Chem, 2022).
